US4228176A, “Thromboxane inhibition with burimamide” (Nelson Research & Development Company, priority 1979, dated 1980)
Read-outs that look alike come from different tables or passages of the source.

Experiments:
Thromboxane Biosynthesis = experiment: Inhibition of thromboxane biosynthesis; format: biochemical; design: % Inhibition of Thromboxane Biosynthesis: unit of the concentration uncertain; conditions: for % INHIBITION (Inhibition of Thromboxane Biosynthesis): concentration of 100 mg/ml (Table 2)
Source text: A comparison of the inhibition of thromboxane biosynthesis between imidazole and Burimamide was made.
A number of structurally related compounds including other H2 blockers were compared for inhibition of thromboxane activity.

Thromboxane Synthetase [1] = conditions: human platelets; cited from earlier work
Thromboxane Synthetase [2] = conditions: cited from earlier work
H2-receptor = conditions: cited from earlier work
[3] = test system: histamineinduced gastric acid secretion; conditions: cited from earlier work
[4] = concentration 0.5 (unit uncertain)
[5] = concentration 1 (unit uncertain)
[6] = concentration 2 (unit uncertain)
[7] = concentration 5 (unit uncertain)
[8] = concentration 10 (unit uncertain)
[9] = concentration 20 (unit uncertain)
[10] = concentration 50 (unit uncertain)

Cc1[nH]cnc1CCN [4-Methylhistamine]
% INHIBITION (Inhibition of Thromboxane Biosynthesis) (Thromboxane Biosynthesis): 0%

N[C@@H](Cc1c[nH]cn1)C(=O)O [L-Histidine]
% INHIBITION (Inhibition of Thromboxane Biosynthesis) (Thromboxane Biosynthesis): 17%

c1ccc([C@H]2CN3CCSC3=N2)cc1 [Levamisole]
% INHIBITION (Inhibition of Thromboxane Biosynthesis) (Thromboxane Biosynthesis): 6%

c1c[nH]cn1 [Imidazole]
thromboxane biosynthesis inhibition, in words (Thromboxane Biosynthesis): only compound comparable in inhibition of thromboxane biosynthesis | % Inhibition of Thromboxane Biosynthesis (Thromboxane Biosynthesis; [4]): 0% | % Inhibition of Thromboxane Biosynthesis (Thromboxane Biosynthesis; [5]): 25% | % Inhibition of Thromboxane Biosynthesis (Thromboxane Biosynthesis; [6]): 53% | % Inhibition of Thromboxane Biosynthesis (Thromboxane Biosynthesis; [7]): 68% | % Inhibition of Thromboxane Biosynthesis (Thromboxane Biosynthesis; [8]): 81% | % Inhibition of Thromboxane Biosynthesis (Thromboxane Biosynthesis; [9]): 89% | % Inhibition of Thromboxane Biosynthesis (Thromboxane Biosynthesis; [10]): 88% | inhibition of thromboxane biosynthesis, in words (Thromboxane Synthetase [1]): selective inhibitor of thromboxane biosynthesis

CC(=O)NCCc1c[nH]cn1 [N-acetyl Histamine]
% INHIBITION (Inhibition of Thromboxane Biosynthesis) (Thromboxane Biosynthesis): 26%

Cn1ccnc1 [1-methyl imidazole]
inhibition of thromboxane biosynthesis, in words (Thromboxane Synthetase [2]): potent inhibitor of thromboxane biosynthesis

NCCc1nccs1 [2-(2-thiazolyl) Ethylamine]
% INHIBITION (Inhibition of Thromboxane Biosynthesis) (Thromboxane Biosynthesis): 19%

CC(=O)N[C@@H](Cc1c[nH]cn1)C(=O)O [N-acetyl Histidine]
% INHIBITION (Inhibition of Thromboxane Biosynthesis) (Thromboxane Biosynthesis): 0%

CNC(=S)NCCSCc1[nH]cnc1C [Metiamide]
thromboxane biosynthesis inhibition, in words (Thromboxane Biosynthesis): only minor thromboxane inhibitory activity | % INHIBITION (Inhibition of Thromboxane Biosynthesis) (Thromboxane Biosynthesis): 33%

NCCc1ccccn1 [2-(2-pyridyl) Ethylamine]
% INHIBITION (Inhibition of Thromboxane Biosynthesis) (Thromboxane Biosynthesis): 20%

Clc1cccc(Cl)c1NC1=NCCN1 [Clonidine]
% INHIBITION (Inhibition of Thromboxane Biosynthesis) (Thromboxane Biosynthesis): 0%

NCCc1c[nH]cn1 [Histamine]
% INHIBITION (Inhibition of Thromboxane Biosynthesis) (Thromboxane Biosynthesis): 17%

CNC(=S)NCCCCc1c[nH]cn1 [Burimamide, N-methyl-N'-[4-(imidazole-4-yl)butyl] thiourea]
thromboxane biosynthesis inhibition, in words (Thromboxane Biosynthesis): potent, selective blocker of thromboxane biosynthesis | % Inhibition of Thromboxane Biosynthesis (Thromboxane Biosynthesis; concentration 100 mg/ml (Table 1)): 98% | % Inhibition of Thromboxane Biosynthesis (Thromboxane Biosynthesis; [4]): 15% | % Inhibition of Thromboxane Biosynthesis (Thromboxane Biosynthesis; [5]): 21% | % Inhibition of Thromboxane Biosynthesis (Thromboxane Biosynthesis; [6]): 36% | % Inhibition of Thromboxane Biosynthesis (Thromboxane Biosynthesis; [7]): 47% | % Inhibition of Thromboxane Biosynthesis (Thromboxane Biosynthesis; [8]): 58% | % Inhibition of Thromboxane Biosynthesis (Thromboxane Biosynthesis; [9]): 73% | % Inhibition of Thromboxane Biosynthesis (Thromboxane Biosynthesis; [10]): 86% | % INHIBITION (Inhibition of Thromboxane Biosynthesis) (Thromboxane Biosynthesis): 100% | pharmacologic activity at H2-receptor, in words (H2-receptor): H2 -receptor blocker | histamine-induced gastric acid secretion, in words [3]: inhibit histamineinduced gastric acid secretion

CN(C)CCCSC(=N)N [Dimaprit]
% INHIBITION (Inhibition of Thromboxane Biosynthesis) (Thromboxane Biosynthesis): 35%

CNC(=NC#N)NCCSCc1[nH]cnc1C [Cimetidine]
thromboxane biosynthesis inhibition, in words (Thromboxane Biosynthesis): only minor thromboxane inhibitory activity | % INHIBITION (Inhibition of Thromboxane Biosynthesis) (Thromboxane Biosynthesis): 19%
